Measurements as given in patent US12344595B2, “2-amino-n-phenyl-nicotinamides as NAV1.8 inhibitors” (Merck Sharp & Dohme LLC, priority 2018, dated 2025).

Target: human Nav1.8 (Homo sapiens (Human), UniProt Q9Y5Y9)
Assay: Nav1.8 Qube automated patch-clamp assay
Format: cell-based
Settings: Nav1.8 Qube Assay; human Nav1.8 channels stably expressed in HEK 293 cells
How it was run: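 Whole-cell automated patch clamp was run at room temperature on HEK293 cells stably expressing the channel. A 1 Hz, 10 s train of 20 ms pulses to 10 mV from −90 mV (repolarizing to −67 mV) was applied. Peak currents at the 1st and 10th pulses gave resting and inactivated-state IC50 values by Hill fit.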

human Nav1.8, sequence (Q9Y5Y9 whole entry): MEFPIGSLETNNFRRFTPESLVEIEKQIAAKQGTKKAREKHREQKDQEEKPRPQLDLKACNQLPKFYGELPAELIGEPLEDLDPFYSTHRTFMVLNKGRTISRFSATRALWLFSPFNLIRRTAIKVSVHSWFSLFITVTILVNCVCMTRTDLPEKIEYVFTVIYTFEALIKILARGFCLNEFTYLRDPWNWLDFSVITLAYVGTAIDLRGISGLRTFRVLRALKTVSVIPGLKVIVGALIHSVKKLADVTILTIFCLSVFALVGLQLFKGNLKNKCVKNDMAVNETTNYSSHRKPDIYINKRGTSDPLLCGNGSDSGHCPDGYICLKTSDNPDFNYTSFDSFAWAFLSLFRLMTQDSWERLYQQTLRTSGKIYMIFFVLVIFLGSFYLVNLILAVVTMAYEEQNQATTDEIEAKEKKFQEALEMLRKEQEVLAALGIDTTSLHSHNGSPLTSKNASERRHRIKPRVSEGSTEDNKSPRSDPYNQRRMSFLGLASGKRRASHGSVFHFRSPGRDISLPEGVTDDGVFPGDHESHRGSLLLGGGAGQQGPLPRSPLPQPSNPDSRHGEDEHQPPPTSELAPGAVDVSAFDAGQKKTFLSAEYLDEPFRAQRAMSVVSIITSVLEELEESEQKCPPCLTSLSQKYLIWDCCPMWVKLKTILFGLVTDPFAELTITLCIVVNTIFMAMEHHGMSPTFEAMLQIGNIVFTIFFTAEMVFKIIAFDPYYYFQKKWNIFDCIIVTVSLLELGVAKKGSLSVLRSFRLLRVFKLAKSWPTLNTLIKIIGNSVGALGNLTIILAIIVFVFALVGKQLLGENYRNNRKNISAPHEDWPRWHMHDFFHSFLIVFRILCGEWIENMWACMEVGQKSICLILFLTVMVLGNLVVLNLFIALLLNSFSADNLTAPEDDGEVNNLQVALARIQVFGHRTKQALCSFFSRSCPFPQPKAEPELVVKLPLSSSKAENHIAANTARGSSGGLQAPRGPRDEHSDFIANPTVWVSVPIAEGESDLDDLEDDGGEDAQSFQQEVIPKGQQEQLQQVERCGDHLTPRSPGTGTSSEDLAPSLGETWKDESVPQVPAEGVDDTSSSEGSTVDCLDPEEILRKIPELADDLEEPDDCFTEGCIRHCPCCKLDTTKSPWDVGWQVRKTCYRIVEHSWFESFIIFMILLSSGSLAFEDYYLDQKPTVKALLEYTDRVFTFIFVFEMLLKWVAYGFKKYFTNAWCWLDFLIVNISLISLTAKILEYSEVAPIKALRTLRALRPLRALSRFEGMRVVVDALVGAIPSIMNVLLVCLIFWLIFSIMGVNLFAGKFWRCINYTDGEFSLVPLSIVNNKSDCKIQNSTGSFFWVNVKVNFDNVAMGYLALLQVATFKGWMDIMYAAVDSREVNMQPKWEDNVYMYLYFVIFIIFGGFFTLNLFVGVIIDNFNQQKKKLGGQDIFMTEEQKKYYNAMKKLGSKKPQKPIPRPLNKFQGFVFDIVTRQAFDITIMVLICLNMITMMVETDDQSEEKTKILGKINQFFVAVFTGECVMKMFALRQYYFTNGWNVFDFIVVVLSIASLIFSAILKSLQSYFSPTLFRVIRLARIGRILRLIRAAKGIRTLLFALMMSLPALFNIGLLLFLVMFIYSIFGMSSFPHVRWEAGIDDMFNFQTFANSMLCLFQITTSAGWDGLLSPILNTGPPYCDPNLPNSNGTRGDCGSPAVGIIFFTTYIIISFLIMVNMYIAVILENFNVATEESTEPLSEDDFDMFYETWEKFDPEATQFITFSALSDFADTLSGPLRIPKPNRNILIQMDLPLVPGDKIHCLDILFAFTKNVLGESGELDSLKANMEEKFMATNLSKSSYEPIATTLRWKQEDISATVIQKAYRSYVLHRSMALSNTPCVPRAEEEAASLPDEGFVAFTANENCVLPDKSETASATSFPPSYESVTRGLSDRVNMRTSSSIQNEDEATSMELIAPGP

Compound | IC50
C[C@H]1CN(c2ncc(C(F)(F)F)cc2C(=O)Nc2cccc(S(N)(=O)=O)c2)C[C@H](C(F)(F)F)O1 [Example 145, 2-[(2S,6R)-2-methyl-6-(trifluoromethyl)morpholin-4-yl]-N-(3-sulfamoyl-phenyl)-5-(trifluoro-methyl)pyridine-3-carboxamide] | 15 nM
C[C@@H]1CN(c2ncc(C(F)(F)F)cc2C(=O)Nc2cccc(S(N)(=O)=O)c2)C[C@@H](C(F)(F)F)O1 [Example 146, 2-[(2R,6S)-2-methyl-6-(trifluoromethyl)morpholin-4-yl]-N-(3-sulfamoylphenyl)-5-(trifluoromethyl) pyridine-3-carboxamide] | 26 nM
NS(=O)(=O)c1cccc(NC(=O)c2cc(C(F)(F)F)cnc2N2CCCO[C@H](C(F)(F)F)C2)c1 [Example 147, N-(3-sulfamoylphenyl)-5-(trifluoromethyl)-2-[(2S)-2-(trifluoro-methyl)-1,4-oxazepan-4-yl]pyridine-3-carboxamide] | 32 nM
C[C@H]1CN(c2ncc(C(F)(F)F)cc2C(=O)Nc2cccc(S(N)(=O)=O)c2)C[C@@H](C(F)(F)F)O1 [Example 148, 2-[(2S,6S)-2-methyl-6-(trifluoromethyl)-morpholin-4-yl]-N-(3-sulfamoylphenyl)-5-(trifluoromethyl) pyridine-3-carboxamide] | 113 nM
O=C(Nc1cccc(S(=O)(=O)Nc2ccncn2)c1)c1cc(C(F)(F)F)cnc1N1CCCCCC1 [Example 151, 2-(azepan-1-yl)-3-((3-(N-(pyrimidin-4-yl)sulfamoyl)phenyl)carbamoyl)-5-(trifluoromethyl)pyridin-1-ium] | 687 nM
CS(=O)(=O)c1cccc(NC(=O)c2cc(C(F)(F)F)cnc2N2CCC(F)(F)CC2)c1 [Example 152, 2-(4,4-difluoropiperidin-1-yl)-N-(3-(methylsulfonyl)phenyl)-5-(trifluoromethyl)nicotinamide] | 67 nM
COc1nc(N2CCCCCC2)c(C(=O)Nc2cccc(S(N)(=O)=O)c2)cc1C [Example 155, 2-(azepan-1-yl)-6-methoxy-5-methyl-N-(3-sulfamoylphenyl)nicotinamide] | 32 nM
COc1nc(N2CCCCCC2)c(C(=O)Nc2cccc(S(N)(=O)=O)c2)cc1Br [Example 156, 2-(azepan-1-yl)-5-bromo-6-methoxy-N-(3-sulfamoylphenyl)nicotinamide] | 19 nM
Cc1nc(N2CCCCCC2)c(C(=O)Nc2cccc(S(N)(=O)=O)c2)cc1C#N [Example 157, 2-(azepan-1-yl)-5-cyano-6-methyl-N-(3-sulfamoylphenyl)-pyridine-3-carboxamide] | 10 nM
C=CCCc1cnc(N2CCCC(F)(F)CC2)c(C(=O)Nc2cccc(S(N)(=O)=O)c2)c1 [Example 161, 5-(but-3-en-1-yl)-2-(4,4-difluoroazepan-1-yl)-N-(3-sulfamoylphenyl)nicotinamide] | 3.2 nM

The next lines start with the values.

IC50 | Compound
2240 nM | CC(C)Cc1cnc(N2CCCCC2)c(C(=O)Nc2cccc(S(N)(=O)=O)c2)c1 [Example 153, 5-isobutyl-2-(piperidin-1-yl)-N-(3-sulfamoylphenyl)nicotinamide]
1790 nM | NS(=O)(=O)c1cccc(NC(=O)c2cc(C3CCCC3)cnc2N2CCCCC2)c1 [Example 154, 5-cyclopentyl-2-(piperidin-1-yl)-N-(3-sulfamoylphenyl)-nicotinamide]
910 nM | Cc1cc(Cl)c(C(=O)Nc2cccc(S(N)(=O)=O)c2)c(N2CCCCCC2)n1 [Example 158, 2-(azepan-1-yl)-4-chloro-6-methyl-N-(3-sulfamoylphenyl)-pyridine-3-carboxamide]
2.5 nM | NS(=O)(=O)c1cccc(NC(=O)c2cc(C3CCC3)cnc2N2CCCC(F)(F)CC2)c1 [Example 159, 5-cyclobutyl-2-(4,4-difluoroazepan-1-yl)-N-(3-sulfamoylphenyl)nicotinamide]
681 nM | NS(=O)(=O)c1cccc(NC(=O)c2cc(C3COC3)cnc2N2CCCC(F)(F)CC2)c1 [Example 160, 2-(4,4-difluoroazepan-1-yl)-5-(oxetan-3-yl)-N-(3-sulfamoylphenyl)nicotinamide]
